# Assay results as given in PMC11512107, “Structural and biochemical analysis of ligand binding in yeast Niemann–Pick type C1–related protein” (Life Science Alliance, 2024).
# Legend:
# NPC2 = target: T1, NPC2 (Saccharomyces cerevisiae, UniProt Q12408); experiment: In vitro liposome crosslinking assay of pac-lipids with NPC2; type: binding; settings: liposomes with 1.5 mol% pac-lipid (1 μM), 1.5 μM NPC2
# T1 construct: residues 1–173, UniProt: Q12408; thrombin cleavage site (C); deca-histidine tag (C, cleaved yes); made in house; host or cells: Saccharomyces cerevisiae strain DSY-5
# T1 sequence (Q12408 22-173): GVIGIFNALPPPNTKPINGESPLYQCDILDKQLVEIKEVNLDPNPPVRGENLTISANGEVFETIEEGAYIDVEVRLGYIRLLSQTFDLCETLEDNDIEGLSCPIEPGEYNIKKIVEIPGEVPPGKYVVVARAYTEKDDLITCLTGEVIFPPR
# Protocol: To compare with the interaction profile of the NTD, crosslinking assays were also performed with purified, delipidated NPC2 (Fig S4A and B). […] NPC2 crosslinks well with all tested pac-lipids but, as for the NTD, most strongly with pacChol (+UV/−UV ratio = 1.91). Robust and consistent crosslinking with pacSph (+UV/−UV ratio = 1.64), pacCer (+UV/−UV = 1.67), and pacPC (+UV/−UV = 1.63) were observed. The crosslinking efficiency for cholesterol and sphingosine analogs was higher for the NTD, whereas crosslinking with ceramide and PC analogs seemed stronger with NPC2.
# Lipids from stock vials were dissolved in chloroform and mixed at the desired molar ratio. For in vitro crosslinking, most liposomes consisted of 88.5 mol% DOPC as carrier lipid, 10 mol% DOPS, and 1.5 mol% respective pac-lipid. The pac-lipids were incorporated into liposomes at low concentrations (1.5 mol%) to ensure homogenous distribution and avoid micelle formation. The solvent was evaporated in a rotary evaporator (Hei-VAP Core, Heidolph) for 30 min at 42°C at 150 rpm to create a thin lipid film. Lipid films were hydrated with filtered and degassed PBS (137 mM NaCl, 2.7 mM KCl, 10 mM Na2HPO4, 1.8 mM KH2PO4, pH 7.4). Solutions of hydrated lipids (with a total lipid concentration of 2 mM) were subjected to five freeze–thaw cycles in liquid nitrogen and warm water (42°C) to facilitate breakup of large structures and support formation of smaller multilamellar vesicles. Lipid solutions were stored at −20°C. Before use, liposomes were extruded by passing 20x through a 100-nm pore size polycarbonate filter (Nuclepore; Whatman) using a hand extruder (Avanti Polar Lipids). Extruded liposomes were stored at 4°C, protected from light, and used within 1–2 d.
# Extruded liposomes were diluted in PBS until a final lipid concentration of 60 μM, including 1 μM pac-lipid. Purified proteins were added until a final concentration of 1.5 μM in a reaction volume of 100 μl. Protein–liposome mixtures were incubated in 0.5-ml Eppendorf tubes for 30 min at 37°C at 400 rpm (Comfort thermomixer, Eppendorf), then crosslinked (or not) by exposure to 365-nm UV light for 15 min at 4°C using a 100-W mercury lamp (Blak-Ray B-100AP). After crosslinking, the click reaction was performed by adding 0.7 μl of freshly prepared click mix into the sample tubes. The final concentrations of click reagents in sample tubes were 80 μM CuSO4 (Merck), 3 μM TBTA (Merck), 3 μM AF647-picolyl azide (Jena Bioscience), and 80 μM ascorbic acid (Merck). Fresh stock of ascorbic acid solution in water was prepared every time and added to the click mix immediately before starting the click reaction. Click reactions were allowed to proceed for 2 h at 37°C at 400 rpm with the thermomixer. Then, samples were concentrated in a vacuum evaporator for 30 min set to 30°C and supplemented with 4x Lämmli buffer (250 mM Tris, pH 6.8, 9.2% SDS, 40% glycerol, 0.2% bromophenol blue, 100 mM DTT). Samples were boiled for 5 min at 95°C, and clicked protein–lipid complexes were resolved by SDS–PAGE. After extensive destaining in a destain solution (65% water, 25% isopropanol, and 10% acetic acid), the AF647 (a structural analog of Alexa Fluor 647) and Coomassie images were acquired using the LI-COR Odyssey imaging system. Data were evaluated by subtracting background fluorescence, followed by comparing the AF647 signal between crosslinked and non-crosslinked samples, normalized to protein loading based on Coomassie staining. The resulting values are described as +UV/−UV ratios. Statistics were calculated with the Mann–Whitney U test.
# NTD of NCR1 = target: T2, NTD of NCR1 (Saccharomyces cerevisiae, UniProt Q12200); experiment: In vitro liposome crosslinking assay of pac-lipids with the NTD; type: binding; settings: liposomes with 1.5 mol% pac-lipid (1 μM), 1.5 μM NTD, average ratio
# T2 construct: residues 1–249, UniProt: Q12200; thrombin cleavage site (C); deca-histidine tag (C, cleaved yes); made in house; host or cells: Saccharomyces cerevisiae strain DSY-5
# T2 sequence (Q12200 20-249): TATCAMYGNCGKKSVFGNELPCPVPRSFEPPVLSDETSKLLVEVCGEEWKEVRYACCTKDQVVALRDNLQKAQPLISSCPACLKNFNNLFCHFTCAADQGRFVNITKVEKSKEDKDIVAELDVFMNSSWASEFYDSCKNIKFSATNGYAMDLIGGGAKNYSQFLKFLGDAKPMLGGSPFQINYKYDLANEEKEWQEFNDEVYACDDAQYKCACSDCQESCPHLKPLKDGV
# Description: In a parallel approach, the substrate scope of the NTD and NPC2 was probed with photo-activatable and clickable (pac) lipids. Pac-lipids contain small chemical modifications for click chemistry reactions, with fluorophores such as AF647 (a structural analog of Alexa Fluor 647), and for UV-activated photo-crosslinking, respectively ([45]). In contrast to NBD-tagged lipids delivered in solution, pac-lipids such as pac-cholesterol (pacChol), pac-phosphatidylcholine (pacPC), pac-sphingosine (pacSph), and pac-ceramide (pacCer) were reconstituted in liposomal membranes (Fig 5A and B). As expected, the delipidated NTD crosslinks with pacChol (average +UV/−UV ratio = 2.11). Crosslinking of the NTD with pacSph (+UV/−UV = 1.73) and, to a lesser extent, with pacCer and pacPC (+UV/−UV = 1.40 and 1.12), respectively, was also detected (Fig 5C and D).
# Lipids from stock vials were dissolved in chloroform and mixed at the desired molar ratio. […]
# Extruded liposomes were diluted in PBS until a final lipid concentration of 60 μM, including 1 μM pac-lipid. […] Data were evaluated by subtracting background fluorescence, followed by comparing the AF647 signal between crosslinked and non-crosslinked samples, normalized to protein loading based on Coomassie staining. […] Statistics were calculated with the Mann–Whitney U test.
# NPC2 to the NTD = target: T3, NPC2 to the NTD (Saccharomyces cerevisiae, UniProt Q12200); experiment: In vitro pac-lipid transfer assay from NPC2 to the NTD; type: biochemical; settings: His-tagged NPC2 preloaded with soluble pac-lipid; GFP baseline, STARD3 negative control
# T3 construct: residues 1–249, UniProt: Q12200; residues 1–173, UniProt: Q12408; deca-histidine tag (C, cleaved yes); made in house; host or cells: Saccharomyces cerevisiae strain DSY-5
# T3 sequence (Q12200 20-249): as above
# Description: The consistent interaction of sphingosine with both the NTD and NPC2 observed in this study inspired us to examine whether the transfer of pacSph between the two proteins could be reconstituted in vitro. To this end, a protein-to-protein sphingosine transfer assay using solubilized, free pacSph was designed (Fig 6A). […] As a control for specificity of transfer, the lipid binding domain of a mammalian STARD3 (His-STARD3-StART) was used because this protein was previously shown to interact with sphingosine in related work ([51] Preprint), but it is not located inside lysosomes and, therefore, is not expected to interact with the NTD. His-tagged NPC2, His-sfGFP, or His-STARD3-StART were immobilized on NiNTA beads, preloaded with pacSph, and incubated with the NTD. After removal of the beads, the NTD was subjected to UV crosslinking and clicked with a fluorophore, and the resulting lipid–protein complexes were visualized by SDS–PAGE.
# Purified His-tagged proteins (5 μM of sfGFP, STARD3, or NPC2) were incubated with 10 μM pacSph in PBS for 60 min at 25°C at 500 rpm (Comfort thermomixer, Eppendorf). Next, the His-tagged proteins were captured on NiNTA beads and washed 5x with PBS to remove unbound pacSph. […] For data analysis, the background was subtracted and the +UV/−UV ratios were quantified for each sample as described previously. […] Statistics were calculated with the Mann–Whitney U test.
smiles,measurement,setting,value
C#CCCCC1(CCCCCCCC/C=C/[C@H](O)[C@H](N)CO)N=N1 [pacSph],+UV/−UV ratio (crosslinking with NPC2),NPC2,1.64
same,+UV/−UV ratio (crosslinking with NTD),NTD of NCR1,1.73
same,transfer of pac-lipid from NPC2 to the NTD (crosslinking with NTD),NPC2 to the NTD,increased crosslinking
